Laboratory results: ChEMBL document CHEMBL3885861, “Open TG-GATES”

Organism: Rattus norvegicus
Experiment: Open TG-GATES - Regimen: Daily Repeat
Assay type: toxicity, organism-based, Sprague-Dawley
Design: regimen Daily Repeat, gender Male, age 6 weeks
Settings: in vivo, po, 0 mg/kg, route gavage, dose level Control; for APTT / Bas / Eos / Fbg / Hb / Ht / Lym / MCH / MCHC / MCV / Mono / Neu / PT / Plat / RBC / Ret / WBC: tissue Blood; for KIDNEY_L / KIDNEY_R / KIDNEY_TOTAL: tissue Kidney; for LIVER: tissue Liver; for A/G / ALP / ALT / AST / BUN / CRE / Ca / Cl / DBIL / GLC / IP / K / LDH / Na / PL / RALB / TBIL / TC / TG / TP / gamma-GTP: tissue Plasma

With `NC(=O)N/N=C/c1ccc([N+](=O)[O-])o1` [NITROFURAZONE] the TERMINAL_BW (72 h, time 3 day) was 218.5 g, the APTT (72 h, time 3 day) was 14.6 s and the Bas (72 h, time 3 day) was 0%. The Eos (72 h, time 3 day) was 0.6%, the Fbg (72 h, time 3 day) was 279.4 mg/dL and the Hb (72 h, time 3 day) was 12.9 g/dL. The Ht (72 h, time 3 day) was 39.6%, the Lym (72 h, time 3 day) was 81% and the MCH (72 h, time 3 day) was 21 pg. It also gave an MCHC (72 h, time 3 day) of 32.6%, an MCV (72 h, time 3 day) of 64.4 fL and a Mono (72 h, time 3 day) of 2.6%. For the same compound, the Neu (72 h, time 3 day) was 15%, the PT (72 h, time 3 day) was 14.5 s and the Plat (72 h, time 3 day) was 111.2 x10_4/uL. The RBC (72 h, time 3 day) was 614.6 x10_4/ul, the Ret (72 h, time 3 day) was 8.9% and the WBC (72 h, time 3 day) was 76.9 x10_2/uL. For the same compound, the KIDNEY_L (72 h, time 3 day) was 0.9 g, the KIDNEY_R (72 h, time 3 day) was 0.9 g and the KIDNEY_TOTAL (72 h, time 3 day) was 1.7 g. The LIVER (72 h, time 3 day) was 9.8 g, the A/G (72 h, time 3 day) was 0.9 and the ALP (72 h, time 3 day) was 2147 IU/L. It also gave an ALT (72 h, time 3 day) of 51.2 IU/L, an AST (72 h, time 3 day) of 78.2 IU/L and a BUN (72 h, time 3 day) of 16 mg/dL. For the same compound, the CRE (72 h, time 3 day) was 0.2 mg/dL, the Ca (72 h, time 3 day) was 11.4 mg/dL and the Cl (72 h, time 3 day) was 106.2 meq/L. It also gave a DBIL (72 h, time 3 day) of 0.016 mg/dL, a GLC (72 h, time 3 day) of 178.2 mg/dL and an IP (72 h, time 3 day) of 7.9 mg/dL. It also gave a K (72 h, time 3 day) of 4.4 meq/L, an LDH (72 h, time 3 day) of 79 IU/L and a Na (72 h, time 3 day) of 141.6 meq/L. For the same compound, the PL (72 h, time 3 day) was 161.2 mg/dL, the RALB (72 h, time 3 day) was 2.6 g/dL and the TBIL (72 h, time 3 day) was 0.046 mg/dL. For the same compound, the TC (72 h, time 3 day) was 92.4 mg/dL, the TG (72 h, time 3 day) was 100.8 mg/dL and the TP (72 h, time 3 day) was 5.6 g/dL. The gamma-GTP (72 h, time 3 day) was 1 IU/L, the TERMINAL_BW ([…], time 7 day) was 259.3 g and the TERMINAL_BW ([…], time 14 day) was 324.7 g. The TERMINAL_BW ([…], time 28 day) was 406 g, the APTT ([…], time 7 day) was 16.9 s and the Bas ([…], time 7 day) was 0.2%. For the same compound, the Eos ([…], time 7 day) was 1%, the Fbg ([…], time 7 day) was 268 mg/dL and the Hb ([…], time 7 day) was 13.4 g/dL. For the same compound, the Ht ([…], time 7 day) was 39.9%, the Lym ([…], time 7 day) was 75% and the MCH ([…], time 7 day) was 21.1 pg. It also gave an MCHC ([…], time 7 day) of 33.5%, an MCV ([…], time 7 day) of 62.8 fL and a Mono ([…], time 7 day) of 3.2%. It also gave a Neu ([…], time 7 day) of 20.2%, a PT ([…], time 7 day) of 14.4 s and a Plat ([…], time 7 day) of 112.6 x10_4/uL. It also gave an RBC ([…], time 7 day) of 636.4 x10_4/ul, a Ret ([…], time 7 day) of 7% and a WBC ([…], time 7 day) of 96.1 x10_2/uL. For the same compound, the APTT ([…], time 14 day) was 14.3 s, the Bas ([…], time 14 day) was 0.2% and the Eos ([…], time 14 day) was 0.8%. For the same compound, the Fbg ([…], time 14 day) was 303 mg/dL, the Hb ([…], time 14 day) was 13.6 g/dL and the Ht ([…], time 14 day) was 41.4%. The Lym ([…], time 14 day) was 77.8%, the MCH ([…], time 14 day) was 20.7 pg and the MCHC ([…], time 14 day) was 32.8%. The MCV ([…], time 14 day) was 63.2 fL, the Mono ([…], time 14 day) was 2% and the Neu ([…], time 14 day) was 18.2%. The PT ([…], time 14 day) was 14.4 s, the Plat ([…], time 14 day) was 121.6 x10_4/uL and the RBC ([…], time 14 day) was 657.2 x10_4/ul. The Ret ([…], time 14 day) was 5.7%, the WBC ([…], time 14 day) was 91.3 x10_2/uL and the APTT ([…], time 28 day) was 16.2 s. For the same compound, the Bas ([…], time 28 day) was 0%, the Eos ([…], time 28 day) was 1.2% and the Fbg ([…], time 28 day) was 275.6 mg/dL. The Hb ([…], time 28 day) was 15 g/dL, the Ht ([…], time 28 day) was 44.5% and the Lym ([…], time 28 day) was 77%. The MCH ([…], time 28 day) was 19.5 pg, the MCHC ([…], time 28 day) was 33.7% and the MCV ([…], time 28 day) was 58 fL. The Mono ([…], time 28 day) was 1.8%, the Neu ([…], time 28 day) was 19.4% and the PT ([…], time 28 day) was 14.9 s. For the same compound, the Plat ([…], time 28 day) was 105 x10_4/uL, the RBC ([…], time 28 day) was 767.2 x10_4/ul and the Ret ([…], time 28 day) was 2.6%. The WBC ([…], time 28 day) was 74.7 x10_2/uL, the KIDNEY_L ([…], time 7 day) was 1.1 g and the KIDNEY_R ([…], time 7 day) was 1.1 g. For the same compound, the KIDNEY_TOTAL ([…], time 7 day) was 2.1 g, the KIDNEY_L ([…], time 14 day) was 1.3 g and the KIDNEY_R ([…], time 14 day) was 1.2 g. It also gave a KIDNEY_TOTAL ([…], time 14 day) of 2.5 g, a KIDNEY_L ([…], time 28 day) of 1.5 g and a KIDNEY_R ([…], time 28 day) of 1.3 g. The KIDNEY_TOTAL ([…], time 28 day) was 2.8 g, the LIVER ([…], time 7 day) was 12.2 g and the LIVER ([…], time 14 day) was 15.1 g. The LIVER ([…], time 28 day) was 16.8 g, the A/G ([…], time 7 day) was 0.8 and the ALP ([…], time 7 day) was 1832.4 IU/L. For the same compound, the ALT ([…], time 7 day) was 45.8 IU/L, the AST ([…], time 7 day) was 69 IU/L and the BUN ([…], time 7 day) was 15.6 mg/dL. The CRE ([…], time 7 day) was 0.2 mg/dL, the Ca ([…], time 7 day) was 11.2 mg/dL and the Cl ([…], time 7 day) was 104 meq/L. The DBIL ([…], time 7 day) was 0.022 mg/dL, the GLC ([…], time 7 day) was 196.2 mg/dL and the IP ([…], time 7 day) was 7.5 mg/dL. The K ([…], time 7 day) was 3.6 meq/L, the LDH ([…], time 7 day) was 69 IU/L and the Na ([…], time 7 day) was 141.6 meq/L. The PL ([…], time 7 day) was 146.4 mg/dL, the RALB ([…], time 7 day) was 2.6 g/dL and the TBIL ([…], time 7 day) was 0.054 mg/dL. The TC ([…], time 7 day) was 76.2 mg/dL, the TG ([…], time 7 day) was 93.2 mg/dL and the TP ([…], time 7 day) was 5.6 g/dL. For the same compound, the gamma-GTP ([…], time 7 day) was 1 IU/L, the A/G ([…], time 14 day) was 0.8 and the ALP ([…], time 14 day) was 1410 IU/L. It also gave an ALT ([…], time 14 day) of 43.4 IU/L, an AST ([…], time 14 day) of 65.6 IU/L and a BUN ([…], time 14 day) of 17.4 mg/dL. The CRE ([…], time 14 day) was 0.2 mg/dL, the Ca ([…], time 14 day) was 11 mg/dL and the Cl ([…], time 14 day) was 105.4 meq/L. It also gave a DBIL ([…], time 14 day) of 0.012 mg/dL, a GLC ([…], time 14 day) of 195.4 mg/dL and an IP ([…], time 14 day) of 7.5 mg/dL. For the same compound, the K ([…], time 14 day) was 4 meq/L, the LDH ([…], time 14 day) was 70 IU/L and the Na ([…], time 14 day) was 142.8 meq/L. The PL ([…], time 14 day) was 159.8 mg/dL, the RALB ([…], time 14 day) was 2.6 g/dL and the TBIL ([…], time 14 day) was 0.046 mg/dL. For the same compound, the TC ([…], time 14 day) was 79.2 mg/dL, the TG ([…], time 14 day) was 119 mg/dL and the TP ([…], time 14 day) was 5.8 g/dL. The gamma-GTP ([…], time 14 day) was 1.2 IU/L, the A/G ([…], time 28 day) was 0.8 and the ALP ([…], time 28 day) was 1109.8 IU/L. It also gave an ALT ([…], time 28 day) of 38 IU/L, an AST ([…], time 28 day) of 62.4 IU/L and a BUN ([…], time 28 day) of 16.6 mg/dL. The CRE ([…], time 28 day) was 0.2 mg/dL, the Ca ([…], time 28 day) was 10.9 mg/dL and the Cl ([…], time 28 day) was 104 meq/L. For the same compound, the DBIL ([…], time 28 day) was 0.014 mg/dL, the GLC ([…], time 28 day) was 192 mg/dL and the IP ([…], time 28 day) was 6.9 mg/dL. It also gave a K ([…], time 28 day) of 3.4 meq/L, an LDH ([…], time 28 day) of 61.2 IU/L and a Na ([…], time 28 day) of 145.2 meq/L. For the same compound, the PL ([…], time 28 day) was 139.6 mg/dL, the RALB ([…], time 28 day) was 2.7 g/dL and the TBIL ([…], time 28 day) was 0.068 mg/dL. It also gave a TC ([…], time 28 day) of 60.6 mg/dL, a TG ([…], time 28 day) of 145.4 mg/dL and a TP ([…], time 28 day) of 6.1 g/dL. It also gave a gamma-GTP ([…], time 28 day) of 0.8 IU/L.
